In brackets after ≈: the same amount, converted by molar mass.
How the values were obtained:
Staphylococcus aureus [1] = assay: Antimicrobial activity against methicillin resistant Staphylococcus aureus ATCC 43300 assessed as growth inhibition incubated for 18 hrs; format: functional
Escherichia coli [2] = assay: Antimicrobial activity against Escherichia coli ATCC 25922 assessed as growth inhibition incubated for 18 hrs; format: functional
Clostridioides difficile [3] = assay: Antibacterial activity against Clostridioides difficile NSW 132 (RT027) assessed as inhibition of growth visually preincubated for 2 to 4 hrs measured after 48 hrs by CLSI method; format: functional; details: time hrs <=52
[4] = Cytotoxicity against human HEK-293 cells incubated for 23 hrs by CO-ADD method; format: cell-based, HEK293
Klebsiella pneumoniae = assay: Antimicrobial activity against multidrug-resistant Klebsiella pneumoniae ATCC 700603 assessed as growth inhibition incubated for 18 hrs; format: functional
Staphylococcus aureus [5] = assay: Antibacterial activity against methicillin-resistant Staphylococcus aureus NCTC 10442 assessed as inhibition of growth visually by CLSI method; format: functional
Staphylococcus aureus [6] = assay: Antibacterial activity against Staphylococcus aureus ATCC 29213 assessed as inhibition of growth visually by CLSI method; format: functional
Pseudomonas aeruginosa = assay: Antimicrobial activity against Pseudomonas aeruginosa ATCC 27853 assessed as growth inhibition incubated for 18 hrs; format: functional
Staphylococcus aureus [7] = assay: Antibacterial activity against vancomycin intermediate susceptibility Staphylococcus aureus Mu50 assessed as inhibition of growth visually by CLSI method; format: functional
[8] = Hemolytic activity in human RBC assessed as maximal hemolysis at <= 32 ug/ml incubated for 1 hr by CO-ADD method; format: cell-based, Erythrocyte; details: red blood cells (erythrocytes), dose <=32 µg/ml, read-out: Activity
[9] = Cytotoxicity against human HEK-293 cells assessed as maximal inhibition at <= 32 ug/ml incubated for 23 hrs by CO-ADD method; format: cell-based, HEK293; details: dose <=32 µg/ml, read-out: Imax
Cryptococcus neoformans = assay: Antifungal activity against Cryptococcus neoformans H99 ATCC 208821 assessed as growth inhibition incubated for 36 hrs; format: functional; details: var. grubii H99 ATCC 208821
Acinetobacter baumannii = assay: Antimicrobial activity against Acinetobacter baumannii ATCC 19606 assessed as growth inhibition incubated for 18 hrs; format: functional
Candida albicans = assay: Antifungal activity against Candida albicans ATCC 90028 assessed as growth inhibition incubated for 36 hrs; format: functional; details: 28A ATCC 90028
Enterococcus faecalis [10] = assay: Antibacterial activity against vancomycin-resistant Enterococcus faecalis ATCC 51299 assessed as inhibition of growth visually by CLSI method; format: functional
Clostridioides difficile [11] = assay: Antibacterial activity against Clostridioides difficile ATCC 700057 assessed as inhibition of growth visually preincubated for 2 to 4 hrs measured after 48 hrs by CLSI method; format: functional; details: time hrs <=52
[12] = Hemolytic activity in human RBC assessed as hemolysis incubated for 1 hr by CO-ADD method; format: ADME, cell-based, Erythrocyte; details: red blood cells (erythrocytes)
[13] = Hemolytic activity in sheep RBC assessed as hemolysis at 5 microg/ml incubated for 2 hrs by CO-ADD method; format: ADME, cell-based, Ovis aries, Erythrocyte; details: red blood cells (erythrocytes), at 5 µg/mL, read-out: Activity
Streptococcus pneumoniae = assay: Antibacterial activity against Streptococcus pneumoniae ATCC 49619 assessed as inhibition of growth visually by CLSI method; format: functional
[14] = Hemolytic activity in sheep RBC assessed as hemolysis at 50 microg/ml incubated for 2 hrs; format: ADME, cell-based, Ovis aries, Erythrocyte; details: red blood cells (erythrocytes), at 50 µg/mL, read-out: Activity
Escherichia coli [15] = assay: Antibacterial activity against Escherichia coli ATCC 10418 assessed as inhibition of growth visually by CLSI method; format: functional
Enterococcus faecalis [16] = assay: Antibacterial activity against Enterococcus faecalis ATCC 29212 assessed as inhibition of growth visually by CLSI method; format: functional

SMILES	MIC80 (Staphylococcus aureus [1])	MIC80 (Escherichia coli [2])	MIC (Clostridioides difficile [3])	CC50 at 23 h [4]	MIC80 (Klebsiella pneumoniae)	MIC (Staphylococcus aureus [5])	MIC (Staphylococcus aureus [6])	MIC80 (Pseudomonas aeruginosa)	MIC (Staphylococcus aureus [7])	hemolysis at 1 h [8]	Emax at 23 h [9]	MIC80 (Cryptococcus neoformans)	MIC80 (Acinetobacter baumannii)	MIC80 (Candida albicans)	MIC (Enterococcus faecalis [10])	MIC (Clostridioides difficile [11])	HC50 at 1 h [12]	hemolysis at 2 h, 5 microg/ml [13]	MIC (Escherichia coli [15])	MIC (Enterococcus faecalis [16])	further results
CC(C)CCOc1ccccc1-c1ccc(OCc2cn(C[C@@H](CCCCN)NC(=O)[C@@H](CCCNC(=N)N)n3cc(CC4CCCCC4)nn3)nn2)cc1.Cl.Cl	≤ 0.25 µg/mL	8 µg/mL	8 µg/mL	> 32 µg/mL	32 µg/mL	4 µg/mL	2 µg/mL	8 µg/mL	4 µg/mL	82%	40%	> 32 µg/mL	4 µg/mL	16 µg/mL	16 µg/mL	16 µg/mL	> 32 µg/mL	2%	8 µg/mL	4 µg/mL	MIC (Streptococcus pneumoniae): 1 µg/mL; hemolysis at 2 h, 50 microg/ml [14]: 66.4%
CC(C)CCOc1cccc(-c2ccc(OCc3cn(C[C@@H](CCCCN)NC(=O)[C@@H](CCCNC(=N)N)n4cc(CC5CCCCC5)nn4)nn3)cc2)c1.Cl.Cl	≤ 0.25 µg/mL	32 µg/mL	16 µg/mL	> 32 µg/mL	> 32 µg/mL	4 µg/mL	4 µg/mL	32 µg/mL	4 µg/mL	88%	43%	> 32 µg/mL	32 µg/mL	16 µg/mL	16 µg/mL	32 µg/mL	> 32 µg/mL	2.1%	16 µg/mL	4 µg/mL	MIC (Streptococcus pneumoniae): 4 µg/mL; hemolysis at 2 h, 50 microg/ml [14]: 40.8%
CC(C)CCOc1cccc(-c2cccc(OCc3cn(C[C@@H](CCCCN)NC(=O)[C@@H](CCCNC(=N)N)n4cc(CC5CCCCC5)nn4)nn3)c2)c1.Cl.Cl	≤ 0.25 µg/mL	32 µg/mL	16 µg/mL	28.1 µg/mL	> 32 µg/mL	4 µg/mL	4 µg/mL	32 µg/mL	4 µg/mL	94%	55%	> 32 µg/mL	32 µg/mL	8 µg/mL	8 µg/mL	16 µg/mL	> 32 µg/mL	3.7%	4 µg/mL	4 µg/mL	MIC (Streptococcus pneumoniae): 2 µg/mL; hemolysis at 2 h, 50 microg/ml [14]: 76.7%
CN[C@H](CC(C)C)C(=O)N[C@H]1C(=O)N[C@@H](CC(N)=O)C(=O)N[C@H]2C(=O)N[C@H]3C(=O)N[C@H](C(=O)N[C@H](C(=O)O)c4cc(O)cc(O)c4-c4cc3ccc4O)[C@H](O)c3ccc(c(Cl)c3)Oc3cc2cc(c3O[C@@H]2O[C@H](CO)[C@@H](O)[C@H](O)[C@H]2O[C@H]2C[C@](C)(N)[C@H](O)[C@H](C)O2)Oc2ccc(cc2Cl)[C@H]1O [VANCOMYCIN]	1 µg/mL (≈ 0.69 µM)		0.5 µg/mL (≈ 0.345 µM)						8 µg/mL (≈ 5.52 µM)						> 8 µg/mL	1 µg/mL (≈ 0.69 µM)			> 8 µg/mL	2 µg/mL (≈ 1.38 µM)	
CC(C)CCOc1cccc(-c2ccccc2OCc2cn(C[C@@H](CCCCN)NC(=O)[C@@H](CCCNC(=N)N)n3cc(CC4CCCCC4)nn3)nn2)c1.Cl.Cl	≤ 0.25 µg/mL	8 µg/mL	16 µg/mL	> 32 µg/mL	> 32 µg/mL	2 µg/mL	2 µg/mL	8 µg/mL	2 µg/mL	38%	28%	> 32 µg/mL	4 µg/mL	32 µg/mL	8 µg/mL	16 µg/mL	> 32 µg/mL	2.6%	2 µg/mL	2 µg/mL	MIC (Streptococcus pneumoniae): 1 µg/mL; hemolysis at 2 h, 50 microg/ml [14]: 72.1%
CC(C)CCOc1ccc(-c2ccc(OCc3cn(C[C@@H](CCCCN)NC(=O)[C@@H](CCCNC(=N)N)n4cc(CC5CCCCC5)nn4)nn3)cc2)cc1.Cl.Cl	≤ 0.25 µg/mL	8 µg/mL	8 µg/mL	> 32 µg/mL	32 µg/mL	4 µg/mL	4 µg/mL	8 µg/mL	4 µg/mL	94%	25%	> 32 µg/mL	32 µg/mL	1 µg/mL	16 µg/mL	16 µg/mL	9.8 µg/mL	1.4%	32 µg/mL	8 µg/mL	MIC (Streptococcus pneumoniae): 2 µg/mL; hemolysis at 2 h, 50 microg/ml [14]: 57.2%
OC(Cn1cncn1)(Cn1cncn1)c1ccc(F)cc1F [FLUCONAZOLE]												8 µg/mL (≈ 26.1 µM)		0.125 µg/mL (≈ 0.408 µM)							
CCCCCCCCCCCC(=O)N(CCCCCCNC(=O)[C@@H](N)CCCCN)CCCCCCNC(=O)[C@@H](N)CCCCN																	860 µg/mL		3.1 µg/mL (≈ 4.74 µM)		MIC (Staphylococcus aureus [1]): 3.1 µg/mL (≈ 4.74 µM)

Source: ChEMBL document CHEMBL4715932, “Positional Isomers of Biphenyl Antimicrobial Peptidomimetic Amphiphiles” (ACS Med Chem Lett, 2021)
